Experimental data published in patent publication US20150105252A1, “SUBSTITUTED PYRAZOLES AS HERBICIDES” (E I DU PONT DE NEMOURS AND COMPANY, priority 2013, published 2015).

Assays:
Settings in all cases: scale 0 to 100
deadnettle = assay: Test D preemergence; type: in vivo, Lamium amplexicaule
Excerpt: (§1) Seeds of plant species selected from bluegrass (annual bluegrass, Poa annua), blackgrass (Alopecurus myosuroides), canarygrass (littleseed canarygrass, Phalaris minor), chickweed (common chickweed, Stellaria media), galium (catchweed bedstraw, Galium aparine), bromegrass, downy (downy bromegrass, Bromus tectorum), field poppy (Papaver rhoeas), field violet (Viola arvensis), foxtail, green (green foxtail, Setaria viridis), deadnettle (henbit deadnettle, Lamium amplexicaule), ryegrass, Italian (Italian ryegrass, Lolium multiflorum), kochia (Kochia scoparia), lambsquarters (Chenopodium album), oilseed rape (Brassica napus), pigweed (redroot pigweed, Amaranthus retroflexus), chamomile (scentless chamomile, Matricaria inodora), speedwell (bird's-eye speedwell, Veronica persica), barley, spring (spring barley, Hordeum vulgare), wheat, spring (spring wheat, Triticum aestivum), buckwheat, wild (wild buckwheat, Polygonum convolvulus), mustard, wild (wild mustard, Sinapis arvensis), oat, wild (wild oat, Avena fatua), radish, wild (wild radish, Raphanus raphanistrum), windgrass (Apera spica-venti), Russian thistle (Salsola kali), barley, winter (winter barley, Hordeum vulgare), and wheat, winter (winter wheat, Triticum aestivum) were planted into a silt loam soil and treated preemergence with test chemicals formulated in a non-phytotoxic solvent mixture which included a surfactant.
(§2) At the same time, these species were planted in pots containing Redi-Earth® planting medium (Scotts Company, 14111 Scottslawn Road, Marysville, Ohio 43041) comprising spaghnum peat moss, vermiculite, wetting agent and starter nutrients and treated with postemergence applications of the test chemicals formulated in the same manner. Plants ranged in height from 2 to 18 cm (1- to 4-leaf stage). Treated plants and controls were maintained in a controlled growth environment for 14 to 21 days after which time all species were compared to controls and visually evaluated. Plant response ratings, summarized in Table D, are based on a scale of 0 to 100 where 0 is no effect and 100 is complete control. A dash (-) response means no test result.

barley, winter = assay: Test D preemergence; type: in vivo, Hordeum vulgare
Excerpt: as §1, §2

barley, spring = assay: Test D preemergence; type: in vivo, Hordeum vulgare
Excerpt: as §1, §2

radish, wild = assay: Test D postemergence; type: in vivo, Raphanus raphanistrum
Excerpt: as §1, §2

lambsquarters = assay: Test D preemergence; type: in vivo, Chenopodium album
Excerpt: as §1, §2

pigweed = assay: Test D preemergence; type: in vivo, Amaranthus retroflexus
Excerpt: as §1, §2

chickweed = assay: Test D postemergence; type: in vivo, Stellaria media
Excerpt: as §1, §2

Row | Compound | Plant response rating, Deadnettle (deadnettle; 31 g ai/ha) | Plant response rating, Deadnettle (deadnettle; 62 g ai/ha) | Plant response rating, Deadnettle (deadnettle; 125 g ai/ha) | Plant response rating, Deadnettle (deadnettle; 250 g ai/ha) | Plant response rating, Barley, Winter (barley, winter; 31 g ai/ha) | Plant response rating, Barley, Winter (barley, winter; 62 g ai/ha) | Plant response rating, Barley, Winter (barley, winter; 125 g ai/ha) | Plant response rating, Barley, Winter (barley, winter; 250 g ai/ha) | Plant response rating, Barley, Spring (barley, spring; 31 g ai/ha) | Plant response rating, Barley, Spring (barley, spring; 62 g ai/ha) | Plant response rating, Barley, Spring (barley, spring; 125 g ai/ha) | Plant response rating, Barley, Spring (barley, spring; 250 g ai/ha) | Radish, Wild plant response rating (radish, wild; Postemergence, 31 g ai/ha) | Radish, Wild plant response rating (radish, wild; Postemergence, 125 g ai/ha) | Radish, Wild plant response rating (radish, wild; Postemergence, 250 g ai/ha) | Radish, Wild plant response rating (radish, wild; postemergence, 62 g ai/ha) | Plant response rating, Lambsquarters (lambsquarters; 62 g ai/ha) | Plant response rating, Lambsquarters (lambsquarters; 125 g ai/ha) | Plant response rating, Lambsquarters (lambsquarters; 250 g ai/ha) | Plant response rating, Pigweed (pigweed; 62 g ai/ha) | also measured
1 | CCCc1cc(C(=O)NCC(F)(F)F)nn1Cc1cc(C(F)(F)F)nn1C [Compound 138] | 85 | 100 | 100 | 100 | 5 | 35 | 60 | 70 | 0 | 5 | 40 | 75 | 80 | 100 | 95 | 80 | 85 | 100 | 100 | 100 | Plant response rating, Pigweed (pigweed; 125 g ai/ha): 100; Plant response rating, Pigweed (pigweed; 250 g ai/ha): 100; Chickweed plant response rating (chickweed; Postemergence, 31 g ai/ha): 70; Chickweed plant response rating (chickweed; Postemergence, 125 g ai/ha): 80; Chickweed plant response rating (chickweed; Postemergence, 250 g ai/ha): 75; Chickweed plant response rating (chickweed; postemergence, 62 g ai/ha): 70
2 | CCOc1cc(C(=O)NC2CC2)nn1Cc1ccnc(C(F)(F)F)c1 [Compound 189] | 90 | 100 | 100 | 100 | 10 | 35 | 60 | 65 | 0 | 40 | 70 | 85 | 60 | 65 | 85 | 60 | 100 | 100 | 100 | 95 | Plant response rating, Pigweed (pigweed; 125 g ai/ha): 100; Plant response rating, Pigweed (pigweed; 250 g ai/ha): 100; Chickweed plant response rating (chickweed; Postemergence, 31 g ai/ha): 75; Chickweed plant response rating (chickweed; Postemergence, 125 g ai/ha): 70; Chickweed plant response rating (chickweed; Postemergence, 250 g ai/ha): 85; Chickweed plant response rating (chickweed; postemergence, 62 g ai/ha): 75
